Tests used:
MRL-Pdcd1-/- mice = test: Administration of VLA4 inhibitor AJM300 to myocarditis model mice (survival, echocardiography); type: in vivo; details: compared with AJM300(-) group
Description: The AJM300 group (+) was administered with a mixed diet containing 1% of AJM300 from 2 weeks of age until death.
At 28 days of age, 9 mice in the AJM300(-) group and 10 mice in the AJM300(+) group were evaluated for cardiac function by echocardiography and then euthanized to collect heart and blood samples.

[1] = system: autoimmune myocarditis model rats; test: Anti-VLA-4 neutralizing antibody or AJM300 administration in rat autoimmune myocarditis model (cardiac function); type: in vivo, Lewis rats; details: 21 days after induction of myocarditis; diet with 1% AJM300, or 5 mg/kg antibody intravenously at 0w, 1w, 2w, 3w; compared with placebo group
Description: Study groups were: placebo group (5 animals), AJM300-administered group (4 animals), and neutralizing antibody-administered group (5 animals) administered with anti-VLA-4-neutralizing antibody. The placebo group was fed a diet mixed with placebo (0.43% METOLOSE + 0.14% Ac-Di-Sol) from 3 days before induction of myocarditis to 3 weeks. The AJM300-administered group was fed a diet mixed with 1% AJM300 from 3 days before induction of myocarditis to 3 weeks. The neutralizing antibody-administered group was intravenously administered with 5 mg/kg of neutralizing antibody at the time of induction of myocarditis (0w), 1 week after induction of myocarditis (1w), 2 weeks after induction of myocarditis (2w), and 3 weeks after induction of myocarditis (3w). Left ventricular contractile performance and heart rate were evaluated 21 days after induction of myocarditis.

PD1-/- mice = test: Determination of therapeutic effect on myocarditis by PET/CT with [^11C]HCA2969 tracer; type: in vivo
Description: Groups of wild-type mice, placebo PD1-/- mice, AJM300-administered PD1-/- mice and anti-VLA-4 neutralizing antibody-administered PD 1-/- mice at 4 weeks of age were prepared. The placebo group was fed a normal diet and the AJM300-administered group was fed a diet containing 1% AJM300 from day 14 to day 28 after the start of rearing. The anti-VLA-4 neutralizing antibody-administered group was fed a normal diet and administered with anti-VLA -4 neutralizing antibody (10 mg/kg) intraperitoneally on days 14 and 21 after the start of rearing. On day 28 after the start of rearing, each mouse was anesthetized with isoflurane (1 to 3% in 2 L of O2) and injected with a [^11C]HCA2969 tracer (1 to 10 MBq: 10 µg of unlabeled HCA2969 containing 10 MBq of PET tracer) via a tail vein. Twenty minutes after the injection, PET/CT imaging was performed for 10 minutes.

[2] = Stability of the produced [^11C]HCA2969 over time (quality test, radiochemical purity); type: physicochemical; details: immediately after synthesis and even 90 minutes after synthesis; final formulation, approximately 10% ethanol in physiological saline
Description: [^11C]HCA2969 was produced according to the following procedure. A synthesis scheme is shown in FIG. 1. • (1) [^11C]CO2 was produced via nuclear reaction of ^14N(p,α)^11C using N2 gas as a target using a medical cyclotron (CYPRIS HM-18, Sumitomo Heavy Industries, Ltd.). The obtained [^11C]CO2 was introduced into a vapor phase method methyl iodide synthesizer (C-GPC-100, Sumitomo Heavy Industries, Ltd.) to synthesize […] ([^11C]CH3OTf) having high reaction activity. • (2) [^11C]CH3OTf was introduced into a reaction vessel containing 500 µL of a solution of 1 mg/mL HCA2969 precursor (QD) in acetone and 3 µL of 1 mol/L NaOH and subjected to bubbling. • (3) 100 µL of 0.1 mol/L NaOH was added to the solution obtained after the bubbling in the above step (2) and a deprotection reaction was performed at room temperature for 10 minutes. • (4) 1 mL of water for injection was added to the solution obtained after the deprotection in the above step (3), the mixture was mixed thoroughly, and the whole volume was injected into HPLC to fractionate and collect [^11C]HCA2969. A representative HPLC chromatogram is shown in FIG. 2. • (5) The fractionated and collected solution was diluted with water for injection, and the whole volume was introduced into a solid-phase extraction column (HLB column) to retain [^11C]HCA2969. […]

VLA-4 = target: T1, VLA-4 (Mus musculus, UniProt P09055+Q00651); test: [^11C]HCA2969 binding to VLA-4 in mouse monocytes (saturation, Scatchard analysis); details: 2 × 10^6 spleen monocytes
T1 construct: monocytes collected from a spleen of a mouse; endogenous in cells; host or cells: primary monocytes from mouse spleen
T1 sequence (Q00651 41-1039): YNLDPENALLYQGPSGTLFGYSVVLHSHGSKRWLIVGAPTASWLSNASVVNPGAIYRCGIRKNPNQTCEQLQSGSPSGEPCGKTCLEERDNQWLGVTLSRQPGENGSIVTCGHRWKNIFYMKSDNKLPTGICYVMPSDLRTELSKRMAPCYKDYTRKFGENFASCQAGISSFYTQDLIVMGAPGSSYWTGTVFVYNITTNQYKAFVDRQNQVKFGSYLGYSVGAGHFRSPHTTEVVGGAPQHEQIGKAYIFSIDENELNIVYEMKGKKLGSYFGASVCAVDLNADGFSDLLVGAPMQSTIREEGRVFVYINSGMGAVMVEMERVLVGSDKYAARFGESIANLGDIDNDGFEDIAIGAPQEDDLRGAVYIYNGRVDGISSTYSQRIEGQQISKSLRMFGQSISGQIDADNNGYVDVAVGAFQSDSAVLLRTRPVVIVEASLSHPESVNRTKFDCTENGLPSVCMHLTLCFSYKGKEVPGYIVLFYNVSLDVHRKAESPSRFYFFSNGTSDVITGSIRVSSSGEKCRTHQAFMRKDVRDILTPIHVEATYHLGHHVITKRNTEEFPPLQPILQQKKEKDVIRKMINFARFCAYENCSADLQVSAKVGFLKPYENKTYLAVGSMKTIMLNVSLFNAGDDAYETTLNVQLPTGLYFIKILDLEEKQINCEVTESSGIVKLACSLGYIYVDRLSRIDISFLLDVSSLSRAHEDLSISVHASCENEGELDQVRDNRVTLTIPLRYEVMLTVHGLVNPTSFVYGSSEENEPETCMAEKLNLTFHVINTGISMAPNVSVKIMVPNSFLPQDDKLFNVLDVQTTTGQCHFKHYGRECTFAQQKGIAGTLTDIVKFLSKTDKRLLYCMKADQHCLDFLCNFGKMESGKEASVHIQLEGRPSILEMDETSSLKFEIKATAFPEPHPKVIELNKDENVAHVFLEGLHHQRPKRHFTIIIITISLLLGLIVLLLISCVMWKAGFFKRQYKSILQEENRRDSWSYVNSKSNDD
T1 sequence (P09055 21-798): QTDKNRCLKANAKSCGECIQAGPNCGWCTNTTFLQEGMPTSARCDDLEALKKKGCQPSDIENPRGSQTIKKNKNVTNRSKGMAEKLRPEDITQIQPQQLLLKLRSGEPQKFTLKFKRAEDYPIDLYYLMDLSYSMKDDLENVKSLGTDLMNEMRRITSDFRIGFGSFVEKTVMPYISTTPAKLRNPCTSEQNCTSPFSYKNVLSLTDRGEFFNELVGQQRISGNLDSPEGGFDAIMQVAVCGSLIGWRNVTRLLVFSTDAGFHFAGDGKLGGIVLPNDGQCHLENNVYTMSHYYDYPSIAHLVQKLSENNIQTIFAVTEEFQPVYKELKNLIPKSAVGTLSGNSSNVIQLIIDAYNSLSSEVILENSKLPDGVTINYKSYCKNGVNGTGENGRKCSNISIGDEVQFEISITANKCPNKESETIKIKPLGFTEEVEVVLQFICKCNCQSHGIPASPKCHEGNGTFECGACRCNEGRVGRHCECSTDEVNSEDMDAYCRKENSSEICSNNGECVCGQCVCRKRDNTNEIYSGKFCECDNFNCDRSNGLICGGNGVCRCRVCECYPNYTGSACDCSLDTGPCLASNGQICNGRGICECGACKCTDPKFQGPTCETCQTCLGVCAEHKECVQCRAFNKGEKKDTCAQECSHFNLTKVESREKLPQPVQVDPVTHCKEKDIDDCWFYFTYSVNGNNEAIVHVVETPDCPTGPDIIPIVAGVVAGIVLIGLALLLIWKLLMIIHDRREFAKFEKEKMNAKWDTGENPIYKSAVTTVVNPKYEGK
Description: Monocytes collected from a mouse were used to evaluate the binding of a [^11C]HCA2969 to VLA-4.
2 × 10^6 monocytes collected from a spleen of a mouse and a [^11C]HCA2969 synthesized in the above section 1 were added to buffer (10mM Tris pH 7.5, 0.1% BSA, 150 mM NaCl, 2 mM MnCl2, 2 mM D-glucose) at concentrations of 0.025 nM, 0.1 nM, 0.4 nM, 1.6 nM, 6.4 nM and 25.6 nM, respectively, and mixed. After mixing, the cells were incubated at room temperature for 20 minutes and washed 2 times with buffer (10mM Tris pH 7.5, 0.1% BSA, 150 mM NaCl, 2 mM MnCl2, 2 mM D-glucose). Radiation dose was measured for the washed cells using a scintillation counter.

[3] = system: MRL-Pdcd1-/- and wild-type mice; test: Detection of myocarditis by PET/CT imaging with [^11C]HCA2969 tracer in mice; type: in vivo; details: about 1 to 10 MBq intravenously, days 25 to 26
Description: In the MRL-Pdcd1-/- and wild-type mice prepared in the above section 5, a [^11C]HCA2969 tracer (about 1 to 10 MBq) was administered intravenously via a tail vein under inhalation anesthesia with isoflurane on days 25 to 26, followed by PET/CT imaging.

[4] = system: autoimmune myocarditis model rat; test: Detection of autoimmune myocarditis by PET/CT imaging with [^11C]HCA2969 tracer in rats; type: in vivo, Lewis rats; details: autoimmune myocarditis model rats at 3 weeks of induction; about 1 to 10 MBq intravenously
Description: An autoimmune myocarditis model rat was prepared by administering 10 mg/ml of Pig Cardiac Myosin (purified in-house from pig heart) and Adjuvant (CFA 10 mg/ml; Chondrex, Inc., 7002) to Lewis rats (male, 8 weeks old). A day of administration of the Pig Cardiac Myosin was set as Day 0. In this model, myocarditis reached its climax on Day 21. […] On Day 12, infiltration of inflammatory cells into cardiac muscle tissue began, and, on Day 19, more intense infiltration of the inflammatory cells was observed. On Day 25, destruction of the cardiac muscle tissue due to inflammation was observed.
In autoimmune myocarditis model rat prepared in the above section 2, a [^11C]HCA2969 tracer at about 1 to 10 MBq was administered intravenously via a tail vein under inhalation anesthesia with isoflurane at 3 weeks of induction, which is the climax of myocarditis, followed by PET/CT imaging.

EAE mice = details: mouse, in vivo
EAE model mice = details: mouse, in vivo
[5] = echocardiography at 28 days of age, diet containing 1% of AJM300, t-test p=0.0231

| Compound | heart rate (MRL-Pdcd1-/- mice; [5]) | left ventricular contractile performance: % Fractional Shortening (%) (MRL-Pdcd1-/- mice; [5]) | Survival period (Kaplan-Meier) (MRL-Pdcd1-/- mice; mixed diet containing 1% of AJM300 from 2 weeks of age, Log-rank test p=0.0022) | cardiac function (left ventricular contractile performance and heart rate) [1] | accumulation of the [^11C]HCA2969 tracer in the cardiac region (PD1-/- mice; treated PD1-/- mice compared to the placebo group, diet containing 1% AJM300 day 14 to day 28, or antibody 10 mg/kg intraperitoneally on days 14 and 21) | radiochemical purity [2] [%] | Bmax (VLA-4) [Bq] | Kd (VLA-4; 0.025 nM to 25.6 nM, room temperature, 20 minutes, read-out: equilibrium dissociation constant Kd) [nM] | tracer accumulation in hearts ([3]; two MRL-Pdcd1-/- mice) | tracer accumulation in hearts ([3]; two wild-type mice) | tracer accumulation in hearts [4] | accumulation of the [^11C]HCA2969 tracer in the cardiac region (PD1-/- mice; PD1-/- mouse, untreated, day 28, imaging twenty minutes after the injection) | SUV mean (EAE mice) | SUV median (EAE mice) | accumulation of the tracer signal in the brain (EAE model mice) | accumulation of the tracer signal in the spinal cord (EAE model mice) |
| --- | --- | --- | --- | --- | --- | --- | --- | --- | --- | --- | --- | --- | --- | --- | --- | --- |
| COC(=O)[C@H](Cc1ccc(-n2c(=O)c3cc(N(C)C)ccc3n(C)c2=O)cc1)NC(=O)c1c(Cl)cccc1Cl [AJM300, carotegrast methyl] | significantly ameliorated bradycardia | significantly improved | significantly prolonged | no effect | lower |  |  |  |  |  |  |  |  |  |  |  |
| CN(C)c1ccc2c(c1)c(=O)n(-c1ccc(CC(NC(=O)c3c(Cl)cccc3Cl)C(=O)O)cc1)c(=O)n2[11CH3] (stereo not shown) [[^11C]HCA2969] |  |  |  |  |  | ≥ 90 | 81.85 | 0.16 | observed | no tracer accumulation | no tracer accumulation | observed | high accumulation | high accumulation | increasing trend | significant increase |

From patent EP4778918A1, “RADIOACTIVE POSITRON-EMITTING NUCLIDE CARBON-11 LABELED COMPOUND AND RADIOACTIVE COMPOSITION” (The University of Osaka, priority 2023, dated 2025)
